The assay addresses T1, Arginase (ARG1 enzyme) (Homo sapiens, UniProt P05089).
T1 construct: made in house; host or cells: Escherichia coli
T1 sequence (P05089 1-322): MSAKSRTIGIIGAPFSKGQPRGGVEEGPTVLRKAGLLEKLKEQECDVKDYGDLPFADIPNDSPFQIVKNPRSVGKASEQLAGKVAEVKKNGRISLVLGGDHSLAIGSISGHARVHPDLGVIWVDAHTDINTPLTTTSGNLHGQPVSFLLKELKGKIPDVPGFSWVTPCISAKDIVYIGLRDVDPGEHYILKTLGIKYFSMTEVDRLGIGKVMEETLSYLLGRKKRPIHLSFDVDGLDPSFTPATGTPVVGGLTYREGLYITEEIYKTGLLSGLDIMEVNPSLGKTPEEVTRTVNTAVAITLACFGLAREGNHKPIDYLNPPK
Briefly: Arginase Thioornithine Generating Assay (TOGA). In kind it is biochemical. The settings on record: 1.88 nM arginase, thioarginine substrate, fluorescence readout. As to the method: Arginase Thioornithine Generating Assay (TOGA)
Compounds were serially diluted in ten 3-fold steps in DMSO starting from 10 mM DMSO stocks. Compound dilutions or DMSO alone were then dispensed from the dilution plate into a Greiner black 384-well assay plate (catalog #781086) using an Echo 555 acoustic liquid handler (Labcyte).
Arginase protein was recombinantly expressed in Escherichia coli. Purified protein was then diluted in assay buffer (50 mM Tris pH 7.5, 50 mM NaCl, 1 mM manganese chloride, 0.05% bovine serum albumin to obtain a final Arginase concentration of 1.88 nM. Arginase solution (20 μL) or buffer alone (20 μL) were dispensed to wells of the assay plate using a BioRAPTR liquid dispenser (Beckman Coulter). Assay plates containing compound and ARG1 enzyme were incubated at room temperature for 30 minutes. Afterwards, 5 μL of 2.5 mM thioarginine (Cayman Chemicals) in assay buffer were added to each well of the assay plate using a BioRAPTR liquid dispenser. Plates were incubated at room temperature for 60 minutes and reactions were quenched by addition of 15 μL of […] 7-Diethylamine-3-(4-maleimidophenyl)-4-methylcoumarin (Sigma Chemical) in 70% ethanol. Plates were briefly shaken to mix and the fluorescence was measured in an Spectramax plate reader (Molecular Devices) with a 410 nm excitation wavelength and an 490 nm emission wavelength.
Potencies were calculated by […] to the four parameter logistic IC50 equation.
The IC50 is the concentration that inhibits the measured activity by half. Low readings indicate greater potency, high ones weaker potency. For the molecule `O=C(O)[C@H]1NC[C@@H](O)[C@]1(F)CCCB(O)O` [Example 92C, (2R,3S,4R)-3-(3-boronopropyl)-3-fluoro-4-hydroxypyrrolidine-2-carboxylic acid], the IC50 was greater than 10000 nM. On to `CC(C)(O)[C@@]1(CCCB(O)O)CN[C@@H]1C(=O)O` [Example 68, (2S,3S)-3-(3-boronopropyl)-3-(2-hydroxypropan-2-yl)azetidine-2-carboxylic acid], for which the IC50 worked out at 343 nM. That is a sub-micromolar value. Take `C[C@@]1(C(=O)O)NCC[C@H]1CCCB(O)O` [Example 16C, (3R)-3-[3-(dihydroxyboranyl)propyl]-2-methyl-D-proline]: half-maximal inhibition (IC50) required 1450 nM. Compared with the last molecule, the IC50 is about 4.2-fold higher. Molecule `O=C(O)[C@H]1NC[C@H](NCC(F)(F)F)[C@H]1CCCB(O)O` [Example 26, (2S,3R,4R)-3-(3-boronopropyl)-4-((2,2,2-trifluoroethyl)amino)pyrrolidine-2-carboxylic acid] returned an IC50 of 120 nM. This IC50 is about 12-fold lower than that of the molecule before. For `CC(C)[C@H](N)C(=O)N[C@H]1CN[C@H](C(=O)O)[C@@H]1CCCB(O)O` [Example 37, (2S,3R,4R)-4-((S)-2-amino-3-methylbutanamido)-3-(3-boronopropyl)pyrrolidine-2-carboxylic acid], the IC50 came to 2.09 nM. To `CC1(C)N[C@H](C(=O)O)[C@](C)(CCCB(O)O)[C@@H]1O` [Example 75] belongs greater than 10000 nM; to `O=C(O)[C@@H]1NCCC[C@H]1CCCB(O)O` [Example 1C, (2R,3R)-3-[3-(dihydroxyborany)propy]piperidinyl-2-carboxylic acid], 83300 nM.

The molecule `NCCN[C@H]1CN[C@H](C(=O)O)[C@@H]1CCCB(O)O` [Example 31, (2S,3R,4R)-4-((2-aminoethyl)amino)-3-(3-boronopropyl)pyrrolidine-2-carboxylic acid] returned an IC50 of 6.69 nM. Compared with the last molecule, the IC50 is about 12000-fold lower. As for `NC1(C(=O)O)CNCC1(CO)CCCB(O)O` (single isomer, unassigned) [Example 94A, 3-amino-4-(3-boronopropyl)-4-(hydroxymethyl)pyrrolidine-3-carboxylic acid], the IC50 turned out to be 3080 nM.

On to `C[C@H]1N[C@H](C(=O)O)[C@](C)(CCCB(O)O)[C@H]1O` [Example 74A, (2S,3S,4R,5R)-3-(3-boronopropyl)-4-hydroxy-3,5-dimethylpyrrolidine-2-carboxylic acid], for which the IC50 was found to be 48.6 nM. On to `CCN(CC)[C@H]1CN[C@H](C(=O)O)[C@@H]1CCCB(O)O` [Example 28, (2S,3S,4R)-3-(3-boronopropyl)-4-(diethylamino)pyrrolidine-2-carboxylic acid], for which the IC50 turned out to be 3290 nM. Against the preceding molecule, the IC50 is about 68-fold higher. Then `CN(C)C[C@@]1(CCCB(O)O)CCN[C@@H]1C(=O)O` [Example 86, (2S,3R)-3-(3-boronopropyl)-3-((dimethylamino)methyl)pyrrolidine-2-carboxylic acid], with 119 nM; and `O=C(O)[C@H]1NCC[C@@H]1CCCB(O)O` [Example 15B, (3S)-3-[3-(dihydroxyboranyl)propyl]-L-proline], with 413 nM. `O=C(O)C1(CCN2CCCCC2)NCCCC1CCCB(O)O` (stereo not shown) [Example 2, 3-[3-(dihydroxyboranyl)propyl]-2-[2-(piperidin-1-yl)ethyl]piperidinyl-2-carboxylic acid] gave an IC50 of 396 nM. This IC50 and that of the molecule before are within 1.5-fold of each other. To `O=C(O)[C@@]1(CO)NCC[C@H]1CCCB(O)O` [Example 59A, (2R,3R)-3-(3-boronopropyl)-2-(hydroxymethyl)pyrrolidine-2-carboxylic acid] belongs 311 nM. `O=C(O)[C@H]1NCCC1CCCB(O)O` (stereo partly drawn) [Example 9, 3-[3-(dihydroxyboranyl)propyl]-L-proline] came in with an IC50 of 113 nM. Take `O=C(O)[C@H]1N[C@H](CO)C[C@H]1CCCB(O)O` [Example 63, (2S,3R,5S)-3-(3-boronopropyl)-5-(hydroxymethyl)pyrrolidine-2-carboxylic acid]: half-maximal inhibition (IC50) required 7.71 nM. This IC50 is about 15-fold lower than that of the molecule before. `N[C@H](C(=O)N[C@H]1CN[C@H](C(=O)O)[C@@H]1CCCB(O)O)C1CCCC1` [Example 40, (2S,3R,4R)-4-((S)-2-amino-2-cyclopentylacetamido)-3-(3-boronopropyl)pyrrolidine-2-carboxylic acid] came in with an IC50 of 0.778 nM. Compared with the last molecule, the IC50 is about 9.9-fold lower. On to `C[C@@]1(CCCB(O)O)[C@H](O)CN[C@@H]1C(=O)O` [Example 69, (2S,3S,4S)-3-(3-boronopropyl)-4-hydroxy-3-methylpyrrolidine-2-carboxylic acid], for which the IC50 was greater than 10000 nM. To `O=C(O)C1NCCCC1CCCB(O)O` (stereo not shown) [Example 1, 3-[3-(dihydroxyboranyl)propyl]piperidinyl-2-carboxylic acid] belongs 660 nM; to `CCN[C@H]1CN[C@H](C(=O)O)[C@@H]1CCCB(O)O` [Example 30, (2S,3R,4R)-3-(3-boronopropyl)-4-(ethylamino)pyrrolidine-2-carboxylic acid], 84.5 nM. Then `NC[C@@H]1C[C@@H](CCCB(O)O)[C@@H](C(=O)O)N1` [Example 60A, (2S,3R,5S)-5-(aminomethyl)-3-(3-boronopropyl)pyrrolidine-2-carboxylic acid], with 29.5 nM. To `OCC1NCCC1CCCB(O)O` (stereo not shown) [Example 12, {3-[2-(hydroxymethyl)pyrrolidin-3-yl]propyl}boronic acid] belongs 3810 nM; to `C[C@@]1(CCCB(O)O)[C@@H](CO)CN[C@@H]1C(=O)O` [Example 80, (2S,3R,4R)-3-(3-boronopropyl)-4-(hydroxymethyl)-3-methylpyrrolidine-2-carboxylic acid], 27.3 nM. `NC[C@@]1(CCCB(O)O)CN[C@@H]1C(=O)O` [Example 67, (2S,3S)-3-(aminomethyl)-3-(3-boronopropyl)azetidine-2-carboxylic acid] displayed a 50% inhibitory concentration (IC50) of 8 nM. Then `O=C(O)C1NCCNC1CCCB(O)O` (stereo not shown) [Example 7, 3-[3-(dihydroxyboranyl)propyl]piperazine-2-carboxylic acid], with 99000 nM. Then `NC(=O)[C@@]1(CCCB(O)O)CCN[C@@H]1C(=O)O` [Example 89, (2S,3S)-3-(3-boronopropyl)-3-carbamoylpyrrolidine-2-carboxylic acid], with 289 nM. To `O=C(O)[C@@H]1CC(CCB(O)O)CN1` (stereo partly shown) [Example 18, 4-[2-(dihydroxyboranyl)ethyl]proline] belongs 8730 nM; to `NC[C@H]1C[C@H](CCCB(O)O)[C@H](C(=O)O)N1` [Example 60B, (2R,3S,5R)-5-(aminomethyl)-3-(3-boronopropyl)pyrrolidine-2-carboxylic acid], 1780 nM.

The molecule `O=C(O)[C@H]1NC[C@@H]1CCCB(O)O` [Example 8A, (2S,3S)-3-[3-(dihydroxyboranyl)propyl]azetidine-2-carboxylic acid] gave an IC50 of 340 nM. To `O=C(O)[C@H]1NC[C@H](N2CCCC2)[C@H]1CCCB(O)O` [Example 25, (3′R,4′S,5′S)-4′-(3-boronopropyl)-[1,3′-bipyrrolidine]-5′-carboxylic acid] belongs 522 nM; to `O=C(O)[C@H]1NCC[C@]1(CCCB(O)O)C(F)F` [Example 84, (2S,3S)-3-(3-boronopropyl)-3-(difluoromethyl)pyrrolidine-2-carboxylic acid], 28.9 nM; to `N#C[C@@]1(CCCB(O)O)CCN[C@@H]1C(=O)O` [Example 88, (2S,3S)-3-(3-boronopropyl)-3-cyanopyrrolidine-2-carboxylic acid], 13.4 nM.

Molecule `O=C(O)C1NCC[C@@H]1CCCB(O)O` (single isomer, unassigned) [Example 9B] had a half-inhibitory concentration (IC50) of 8040 nM. This IC50 is about 600-fold higher than that of the molecule before.

`CNC[C@@]1(CCCB(O)O)CCN[C@@H]1C(=O)O` [Example 87, (2S,3R)-3-(3-boronopropyl)-3-((methylamino)methyl)pyrrolidine-2-carboxylic acid] displayed an IC50 of 7 nM. This IC50 is about 1100-fold lower than that of the molecule before.

`O=C(O)C1NCCCC1OCCB(O)O` (stereo not shown) [Example 3, 3-[2-(dihydroxyboranyl)ethoxy]piperidinyl-2-carboxylic acid] registered a half-inhibitory concentration (IC50) greater than 10000 nM. `O=C(O)[C@H]1NCC[C@@]1(CO)CCCB(O)O` [Example 83, (2S,3S)-3-(3-boronopropyl)-3-(hydroxymethyl)pyrrolidine-2-carboxylic acid]: the IC50 was 19.3 nM. As to `O=C(O)[C@H]1NC[C@@H](O)[C@@]1(F)CCCB(O)O` [Example 92A, (2R,3R,4R)-3-(3-boronopropyl)-3-fluoro-4-hydroxypyrrolidine-2-carboxylic acid], the IC50 was greater than 10000 nM. In turn, `C[C@@]1(C(=O)O)NCC[C@@H]1CCCB(O)O` [Example 16B, (3S)-3-[3-(dihydroxyboranyl)propyl]-2-methyl-D-proline] came in with an IC50 of 2260 nM. To `C[C@]1(CCCB(O)O)[C@@H](C(=O)O)NC[C@@H]1O` [Example 76, (2S,3S,4R)-3-(3-boronopropyl)-4-hydroxy-3-methylpyrrolidine-2-carboxylic acid] belongs 17.7 nM.

For the origin of these results see patent publication US12215116B2, “Arginase inhibitors and methods of use” (Merck Sharp & Dohme LLC, priority 2018, dated 2025).
